Measured values as given in the NIST ThermoML archive (doi:10.1021/je3013205).

Assays:
[1] = 101 kPa, Liquid, Vibrating tube method
[2] = xn = mol fraction of the nth substance listed; conditions: 101 kPa, Liquid, Vibrating tube method

OCCO [1,2-ethanediol]
[1]
Conditions | mass density [kg/m3]
283.15 K | 1119.29
293.15 K | 1112.37
303.15 K | 1105.39
313.15 K | 1098.34
323.15 K | 1091.21
333.15 K | 1083.99
343.15 K | 1076.65

NCCOCCO [2-(2-aminoethoxy)ethanol]
[1]
Conditions | mass density [kg/m3]
283.15 K | 1063.9
293.15 K | 1055.86
303.15 K | 1047.8
313.15 K | 1039.73
323.15 K | 1031.63
333.15 K | 1023.46
343.15 K | 1015.24

NCCO [2-aminoethan-1-ol]
[1]
Conditions | mass density [kg/m3]
283.15 K | 1024.11
293.15 K | 1016.23
303.15 K | 1008.32
313.15 K | 1000.37
323.15 K | 992.364
333.15 K | 984.301
343.15 K | 976.153

NCCO [2-aminoethan-1-ol] + CC(C)O
mass density [kg/m3], [2]
Conditions | x2 = 0 | x2 = 0.1001 | x2 = 0.1999 | x2 = 0.3002 | x2 = 0.4001 | x2 = 0.5001 | x2 = 0.5999 | x2 = 0.7 | x2 = 0.8002 | x2 = 0.8999
283.15 K | 1024.11 | 999.024 | 974.32 | 949.806 | 925.587 | 902.006 | 879.054 | 856.17 | 834.572 | 813.792
293.15 K | 1016.23 | 990.993 | 966.334 | 941.791 | 917.446 | 893.95 | 870.943 | 848.018 | 826.391 | 805.582
303.15 K | 1008.32 | 982.903 | 958.311 | 933.723 | 909.315 | 885.794 | 862.727 | 839.735 | 818.066 | 797.19
313.15 K | 1000.37 | 974.928 | 950.234 | 925.597 | 901.039 | 877.533 | 854.388 | 831.308 | 809.555 | 788.57
323.15 K | 992.364 | 966.92 | 942.073 | 917.361 | 892.673 | 869.138 | 845.897 | 822.707 | 800.81 | 779.665
333.15 K | 984.301 | 958.72 | 933.821 | 909.018 | 884.471 | 860.597 | 837.216 | 813.881 | 791.784 | 770.393
343.15 K | 976.153 | 950.596 | 925.458 | 900.544 | 875.887 | 851.867 | 828.323 | 804.773 | 782.457 | 760.722

NCCO [2-aminoethan-1-ol] + CO
mass density [kg/m3], [2]
Conditions | x2 = 0 | x2 = 0.0999 | x2 = 0.2 | x2 = 0.3001 | x2 = 0.4 | x2 = 0.5 | x2 = 0.6001 | x2 = 0.7026 | x2 = 0.7998 | x2 = 0.8999
283.15 K | 1024.11 | 1012.96 | 1000.24 | 985.644 | 969.73 | 951.484 | 930.19 | 904.556 | 875.763 | 841.316
293.15 K | 1016.23 | 1005 | 992.199 | 977.53 | 961.548 | 943.204 | 921.795 | 895.978 | 867.002 | 832.282
303.15 K | 1008.32 | 997.005 | 984.108 | 969.37 | 953.296 | 934.844 | 913.321 | 887.345 | 858.177 | 823.2
313.15 K | 1000.37 | 988.961 | 975.96 | 961.142 | 944.973 | 926.41 | 904.767 | 878.633 | 849.26 | 814.016
323.15 K | 992.364 | 980.886 | 967.788 | 952.855 | 936.722 | 917.891 | 896.116 | 869.812 | 840.244 | 804.724
333.15 K | 984.301 | 972.713 | 959.607 | 944.613 | 928.096 | 909.268 | 887.352 | 860.859 | 831.072 | 795.281

NCCO [2-aminoethan-1-ol] + OCCO
mass density [kg/m3], [2]
Conditions | x2 = 0 | x2 = 0.1002 | x2 = 0.2 | x2 = 0.2998 | x2 = 0.3999 | x2 = 0.5001 | x2 = 0.5999 | x2 = 0.7 | x2 = 0.8002 | x2 = 0.8999
283.15 K | 1024.11 | 1035.45 | 1046.35 | 1056.77 | 1066.86 | 1076.47 | 1085.82 | 1094.87 | 1103.84 | 1112.47
293.15 K | 1016.23 | 1027.68 | 1038.7 | 1049.24 | 1059.48 | 1069.16 | 1078.59 | 1087.73 | 1096.76 | 1105.44
303.15 K | 1008.32 | 1019.88 | 1031.01 | 1041.67 | 1052.04 | 1061.82 | 1071.33 | 1080.56 | 1089.64 | 1098.37
313.15 K | 1000.37 | 1012.03 | 1023.26 | 1034.05 | 1044.53 | 1054.42 | 1064.02 | 1073.32 | 1082.46 | 1091.24
323.15 K | 992.364 | 1004.13 | 1015.46 | 1026.35 | 1036.96 | 1046.93 | 1056.62 | 1066.01 | 1075.21 | 1084.05
333.15 K | 984.301 | 996.181 | 1007.58 | 1018.58 | 1029.3 | 1039.37 | 1049.14 | 1058.6 | 1067.87 | 1076.77
343.15 K | 976.153 | 988.118 | 999.618 | 1010.71 | 1021.54 | 1031.7 | 1041.55 | 1051.09 | 1060.42 | 1069.37

CO [methanol]
[1]
Conditions | mass density [kg/m3]
283.15 K | 801.254
293.15 K | 791.866
303.15 K | 782.43
313.15 K | 772.902
323.15 K | 763.244
333.15 K | 753.389

CO [methanol] + NCCO
[2], x1 = 1
Conditions | mass density [kg/m3]
283.15 K | 801.254
293.15 K | 791.866
303.15 K | 782.43
313.15 K | 772.902
323.15 K | 763.244
333.15 K | 753.389

CO [methanol] + NCCOCCO
[2], x1 = 1
Conditions | mass density [kg/m3]
283.15 K | 801.254
293.15 K | 791.866
303.15 K | 782.43
313.15 K | 772.902
323.15 K | 763.244
333.15 K | 753.389

CC(C)O [propan-2-ol]
[1]
Conditions | mass density [kg/m3]
283.15 K | 794.005
293.15 K | 785.764
303.15 K | 777.284
313.15 K | 768.476
323.15 K | 759.309
333.15 K | 749.679
343.15 K | 739.528

CC(C)O [propan-2-ol] + NCCO
[2], x1 = 1
Conditions | mass density [kg/m3]
283.15 K | 794.005
293.15 K | 785.764
303.15 K | 777.284
313.15 K | 768.476
323.15 K | 759.309
333.15 K | 749.679
343.15 K | 739.528

CC(C)O [propan-2-ol] + NCCOCCO
[2], x1 = 1
Conditions | mass density [kg/m3]
283.15 K | 794.005
293.15 K | 785.764
303.15 K | 777.284
313.15 K | 768.476
323.15 K | 759.309
333.15 K | 749.679
343.15 K | 739.528
